In patent US20060135589A1, “1h-Indazole-3-carboxamide compounds as cyclin dependent kinase (cdk) inhibitors” (Astex Technology, Inc., priority 2002, published 2006):

Target: T1, CDK2/CyclinA (Homo sapiens, UniProt P24941)
T1 construct: purchased Upstate Biotechnology
Test: Measurement of CDK2 kinase inhibitory activity (IC50), 33P-ATP / histone H1 filter assay
Type: biochemical
Procedure: Measurement of CDK2 Kinase Inhibitory Activity (IC50)
Compounds of the invention were tested for kinase inhibitory activity using the following protocol.
1.7 μl of active CDK2/CyclinA (Upstate Biotechnology, 10 U/μl) is diluted in assay buffer (250 μl of 10× strength assay buffer (200 mM MOPS pH 7.2, 250 mM β-glycerophosphate, 50 mM EDTA, 150 mM MgCl2), 11.27 μl 10 mM ATP, 2.5 μl 1M DTT, 25 μl 100 mM sodium orthovanadate, 708.53 μl H2O), and 10 μl mixed with 10 μl of histone substrate mix (60 μl bovine histone H1 (Upstate Biotechnology, 5 mg/ml), 940 μl H2O, 35 μCi γ^33P-ATP) and added to 96 well plates along with 5 μl of various dilutions of the test compound in DMSO (up to 2.5%). The reaction is allowed to proceed for 5 hours before being stopped with an excess of ortho-phosphoric acid (30 μl at 2%).
γ^33P-ATP which remains unincorporated into the histone H1 is separated from phosphorylated histone H1 on a Millipore MAPH filter plate. The wells of the MAPH plate are wetted with 0.5% orthophosphoric acid, and then the results of the reaction are filtered with a Millipore vacuum filtration unit through the wells. Following filtration, the residue is washed twice with 200 μl of 0.5% orthophosphoric acid. Once the filters have dried, 25 μl of Microscint 20 scintillant is added, and then counted on a Packard Topcount for 30 seconds.

Compound | inhibition at 50 µM [%]
CNS(=O)(=O)Cc1ccc(NC(=O)c2n[nH]c3ccc(I)cc23)cc1 [Example 13] | ≥ 50
O=C(Nc1ccc([N+](=O)[O-])cn1)c1n[nH]c2ccc(I)cc12 [Example 16, N-(5-nitro-pyridin-2-yl)-5-Iodo-1H-indazole-3-carboxamide] | ≥ 50
NS(=O)(=O)c1ccc(NC(=O)c2n[nH]c3ccc([N+](=O)[O-])cc23)cc1 [Example 18, 5-Nitro-1H-indazole-3-carboxylic acid (4-sulphamoyl-phenyl)-amide] | ≥ 50
CNS(=O)(=O)Cc1ccc(NC(=O)c2n[nH]c3ccc([N+](=O)[O-])cc23)cc1 [Example 19, 5-Nitro-1H-indazole-3-carboxylic acid (4-methylsulphamoylmethyl-phenyl)-amide] | ≥ 50
CNS(=O)(=O)Cc1ccc(NC(=O)c2n[nH]c3ccc(-c4cccs4)cc23)cc1 [Example 21, 5-Thiophen-2-yl-1H-indazole-3-carboxylic acid (4-methylsulphamoylmethyl-phenyl)-amide] | ≥ 50
CNS(=O)(=O)Cc1ccc(NC(=O)c2n[nH]c3ccc(-c4c(C)noc4C)cc23)cc1 [Example 22, 5-(3,5-Dimethyl-isoxazol-4-yl)-1H-indazole-3-carboxylic acid (4-methylsulphamoylmethyl-phenyl)-amide] | ≥ 50
CNS(=O)(=O)Cc1ccc(NC(=O)c2n[nH]c3ccc(-c4ccco4)cc23)cc1 [Example 23, 5-Furan-2-yl-1H-indazole-3-carboxylic acid (4-methylsulphamoylmethyl-phenyl)-amide] | ≥ 50
CNS(=O)(=O)Cc1ccc(NC(=O)c2n[nH]c3ccc(-c4cc5ccccc5o4)cc23)cc1 [Example 24, 5-Benzofuran-2-yl-1H-indazole-3-carboxylic acid (4-methylsulphamoylmethyl-phenyl)-amide] | ≥ 50
CNS(=O)(=O)Cc1ccc(NC(=O)c2n[nH]c3ccc(Cl)cc23)cc1 [Example 25, 5-Chloro-1H-indazole-3-carboxylic acid (4-methylsulphamoylmethyl-phenyl)-amide] | ≥ 50
CNS(=O)(=O)Cc1ccc(NC(=O)c2n[nH]c3ccc(-c4nccs4)cc23)cc1 [Example 29, 5-Thiazol-2-yl-1H-indazole-3-carboxylic acid (4-methylsulphamoylmethyl-phenyl)-amide] | ≥ 50
O=C(Nc1ccc(S(=O)(=O)Nc2nccs2)cc1)c1n[nH]c2ccccc12 [Example 31] | ≥ 50
CS(=O)(=O)NCc1ccc(NC(=O)c2n[nH]c3ccc([N+](=O)[O-])cc23)cc1 [Example 33] | ≥ 50
CCOC(=O)N1CCC(NC(=O)c2n[nH]c3ccc([N+](=O)[O-])cc23)CC1 [Example 34] | ≥ 50
CCCCNC(=O)NS(=O)(=O)c1ccc(NC(=O)c2n[nH]c3ccccc23)cc1 [Example 35] | ≥ 50
CCOC(=O)N1CCC(NC(=O)c2n[nH]c3ccc(Cl)cc23)CC1 [Example 38] | ≥ 50
O=C(NC1CCOCC1)c1n[nH]c2ccc(Cl)cc12 [Example 42] | ≥ 50
CN1CCC(NC(=O)c2n[nH]c3ccc(Cl)cc23)CC1 [Example 43] | ≥ 50
O=C(Nc1cccnc1Cl)c1n[nH]c2ccc(I)cc12 [Example 44] | ≥ 50
Cc1ccc(NC(=O)c2n[nH]c3ccc(I)cc23)nn1 [Example 50] | ≥ 50
CCc1nnc(NC(=O)c2n[nH]c3ccc(Cl)cc23)s1 [Example 51] | ≥ 50
O=C(Nc1ccc[nH]c1=O)c1n[nH]c2ccc(I)cc12 [Example 53] | ≥ 50
CC(C)(C)OC(=O)N1CCC(NC(=O)c2n[nH]c3ccccc23)CC1 [Example 57] | ≥ 50
CC(=O)Nc1ccc(NC(=O)c2n[nH]c3ccc(I)cc23)cn1 [Example 59] | ≥ 50
CNS(=O)(=O)Cc1ccc(NC(=O)c2n[nH]c3ccc(NC(=O)NCCCl)cc23)cc1 [Example 63, 5-[3-(2-Chloro-ethyl)-ureido]-1H-indazole-3-carboxylic acid (4-methylsulphamoylmethyl-phenyl)-amide] | ≥ 50
O=C(NC1CCNCC1)c1n[nH]c2ccc(I)cc12 [Example 64, 5-Iodo-1H-indazole-3-carboxylic acid piperidin-4-ylamide] | ≥ 50

The remaining lines, values ahead:

inhibition at 50 µM [%] | Compound
≥ 50 | O=C(Nc1cccc(-c2nnn[nH]2)c1)c1n[nH]c2ccccc12 [Example 4, N-[3-(1H-tetrazol-5-yl)phenyl]-1H-indazole-3-carboxamide]
≥ 50 | CC(=O)NCc1ccc(NC(=O)c2n[nH]c3ccccc23)cc1 [Example 5, N-[4-(acetylaminomethyl)phenyl]-1H-indazole-3-carboxamide]
≥ 50 | O=C(Nc1ccc(N2CCCC2=O)cc1)c1n[nH]c2ccccc12 [Example 6, N-[4-(2-oxopyrrolidin-1-yl)phenyl]-1H-indazole-3-carboxamide]
≥ 50 | O=C(Nc1cccc(-c2cnco2)c1)c1n[nH]c2ccccc12 [Example 7, N-[3-(oxazol-5-yl)phenyl)-1H-indazole-3-carboxamide]
≥ 50 | O=C(Nc1ccc(-c2c[nH]cn2)cc1)c1n[nH]c2ccccc12 [Example 8, N-[4-(1H-imidazol-4-yl)phenyl]-1H-indazole-3-carboxamide]
≥ 50 | CS(=O)(=O)c1cccc(NC(=O)c2n[nH]c3ccccc23)c1 [Example 9, N-[3-methanesulphonylphenyl]-1H-indazole-3-carboxamide]
≥ 50 | O=C(Nc1ccc(S(=O)(=O)N2CCOCC2)cc1)c1n[nH]c2ccccc12 [Example 10, N-[4-(morpholine-4-sulphonyl)phenyl]-1H-indazole-3-carboxamide]
≥ 50 | O=C(Nc1ccccc1)c1n[nH]c2ccc(I)cc12 [Example 11, N-phenyl-5-iodo-1H-indazole-3-carboxamide]
≥ 50 | NS(=O)(=O)c1ccc(NC(=O)c2n[nH]c3ccc(I)cc23)cc1 [Example 12, N-(4-aminosulphonylphenyl)-5-iodo-1H-indazole-3-carboxamide]
≥ 50 | CS(=O)(=O)c1cccc(NC(=O)c2n[nH]c3ccc(I)cc23)c1 [Example 14, N-(3-methanesulphonylphenyl)-5-iodo-1H-indazole-3-carboxamide]
≥ 50 | CC(=O)NCc1ccc(NC(=O)c2n[nH]c3ccc(I)cc23)cc1 [Example 15, N-[4-(acetylaminomethyl)phenyl]-5-iodo-1H-indazole-3-carboxamide]
≥ 50 | O=C(Nc1ccccc1)c1n[nH]c2ccc(N3CCOCC3)cc12 [Example 17, 5-Morpholin-4-yl-1H-indazole-3-carboxylic acid phenylamide]
≥ 50 | NS(=O)(=O)c1ccc(NC(=O)c2n[nH]c3ccccc23)cc1 [Example 26, 1H-Indazole-3-carboxylic acid (4-sulphamoyl-phenyl)-amide]
≥ 50 | O=C(Nc1ccccc1)c1n[nH]c2ccccc12 [Example 27]
≥ 50 | O=C(Nc1ccc(Cl)nc1)c1n[nH]c2ccccc12 [Example 28, 1H-Indazole-3-carboxylic acid (6-chloro-pyridin-3-yl)-amide]
≥ 50 | CNS(=O)(=O)Cc1ccc(NC(=O)c2n[nH]c3ccc(-c4ccccc4)cc23)cc1 [Example 32]

inhibition at 50 µM [%] | Compound
≥ 50 | N=C(N)NS(=O)(=O)c1ccc(NC(=O)c2n[nH]c3ccccc23)cc1 [Example 36]
≥ 50 | O=C(NC1CCN(Cc2ccccc2)C1)c1n[nH]c2ccc(Cl)cc12 (stereo not drawn) [Example 37]
≥ 50 | COc1ccc(NC(=O)c2n[nH]c3ccc(I)cc23)cn1 [Example 39]
≥ 50 | O=C(Nc1cccnc1)c1n[nH]c2ccc(I)cc12 [Example 40]
≥ 50 | O=C(Nc1cnc2ccccc2c1)c1n[nH]c2ccc(I)cc12 [Example 41]
≥ 50 | O=C(NCc1ccccc1)c1n[nH]c2ccc(Cl)cc12 [Example 45]
≥ 50 | CN1CCN(c2ccc(CNC(=O)c3n[nH]c4ccc(Cl)cc34)cc2)CC1 [Example 46]
≥ 50 | O=C(Nc1cccnc1)c1n[nH]c2ccc(Cl)cc12 [Example 47]
≥ 50 | N#Cc1ccc(NC(=O)c2n[nH]c3ccc(I)cc23)cn1 [Example 48]
≥ 50 | O=C(Nc1ccccc1)c1n[nH]c2ccc(Cl)cc12 [Example 49]
≥ 50 | O=C(Nc1ccc(N2CCOCC2)cc1)c1n[nH]c2ccc(I)cc12 [Example 52]
≥ 50 | O=C(Nc1ccc(N2CCOCC2)cc1)c1n[nH]c2ccccc12 [Example 54]
≥ 50 | O=C(Nc1ccccc1)c1n[nH]c2ccc([N+](=O)[O-])cc12 [Example 55]
≥ 50 | O=C(Nc1ccc(Cl)nc1)c1n[nH]c2ccc(I)cc12 [Example 56]
≥ 50 | O=C(Nc1ccc(F)cc1)c1n[nH]c2ccc(I)cc12 [Example 58]
≥ 50 | Nc1ccc2[nH]nc(C(=O)Nc3ccccc3)c2c1 [Example 60, 5-Amino-1H-indazole-3-carboxylic acid phenylamide]
